Source: paper PMC7946667 (Cancer Chemotherapy and Pharmacology, 2021)
Values joined by “and” are separate entries in the source; they are usually repeats but may differ in a detail not shown here. Equal values may be shown once. Read-outs that look alike come from different tables or passages of the source.

What was measured:
CYP3A [1] = assay: Clinical DDI study: pharmacokinetics of midazolam (CYP3A probe substrate) and 1′-hydroxymidazolam with and without ceritinib; format: in vivo, human; details: for Metabolite-to-parent ratio: AUC0–144 h based, molecular weight corrected; for AUC(0-inf): read-out: AUC0-inf, adjusted geometric mean
Description: This was a multicenter, open-label, single sequence, crossover phase I study (ClinicalTrials.gov identifier: NCT02422589) and was divided into two phases, DDI phase and post-DDI treatment phase (Fig. 1). Patients were recruited from 10 clinical centers located across 4 countries, namely Spain (n = 3), United States (n = 3), Italy (n = 3), and Denmark (n = 1).
To assess the pharmacokinetics of probe substrates, blood samples were obtained on Days 1 and 28 at pre-dose and at 0.25, 0.5, 1, 2, 3, 4, 6, 8, 10, 24, 48, 72, 96, 120, and 144 h post-dose. […] A blood sample for CYP2C9 genotyping was collected on Day 1 of the DDI phase from all participating patients. Patients were categorized as CYP2C9 poor, intermediate, or extensive metabolizers based on the genotype testing results. This assessment was of exploratory nature and was not used as inclusion/exclusion criteria in the study.
A linear mixed-effects model was fitted to the log-transformed primary PK parameters (Cmax, AUC0-144 h, and AUC0-inf) and included a fixed effect for treatment and a random effect for subject.

CYP2C9 = details: for AUC0-inf, adjusted geometric mean / Cmax, adjusted geometric mean: linear mixed effects model; for Tmax: median [min, max]; for AUC0–144 h / Cmax: patient plasma; for AUC0–144 h / Cmax / Metabolite-to-parent ratio: geometric mean (CV%); for Metabolite-to-parent ratio: AUC0–144 h based, molecular weight corrected
CYP3A [2] = details: PBPK, cited from earlier work
[3] = midazolam 2.5 mg single oral dose + ceritinib 750 mg QD at steady state (Day 28), patient plasma, geometric mean (CV%)
[4] = midazolam 2.5 mg single oral dose alone (Day 1), patient plasma, geometric mean (CV%)
[5] = midazolam + ceritinib vs midazolam alone
[6] = treatment warfarin + ceritinib 750 mg QD for 3 weeks
[7] = warfarin 10 mg single oral dose + ceritinib 750 mg QD at steady state (Day 28)
[8] = warfarin 10 mg single oral dose alone (Day 1)
[9] = warfarin + ceritinib / warfarin alone
[10] = midazolam 2.5 mg single oral dose + ceritinib 750 mg QD (Day 28), geometric mean (CV%)
[11] = midazolam 2.5 mg single oral dose alone (Day 1), geometric mean (CV%)

## OCc1ncc2n1-c1ccc(Cl)cc1C(c1ccccc1F)=NC2 [1′-hydroxymidazolam]
CYP3A [1]; midazolam 2.5 mg single oral dose + ceritinib 750 mg QD (Day 28), median [min, max]
  Tmax: 0.583 [0.250; 2.53] h
CYP3A [1]; [3]
  AUC0–144 h: 12.1 (87.0) h*ng/mL
  Cmax: 1.90 (73.8) ng/mL
CYP3A [1]; midazolam 2.5 mg single oral dose alone (Day 1), median [min, max]
  Tmax: 0.500 [0.217; 2.00] h
CYP3A [1]; [4]
  AUC0–144 h: 14.7 (74.4) h*ng/mL
  Cmax: 5.41 (74.1) ng/mL
CYP3A [1]; midazolam + ceritinib 750 mg QD (Day 28), geometric mean (CV%)
  Metabolite-to-parent ratio: 2.9% and 2.89 (66.7) %
CYP3A [1]; [5]
  decrease in the metabolite-to-parent AUC ratio: 85%
CYP3A [1]; midazolam alone (Day 1), geometric mean (CV%)
  Metabolite-to-parent ratio: 19.3% and 19.3 (66.3) %

## CC(=O)C[C@@H](c1ccccc1)c1c(O)c2ccc(O)cc2oc1=O [7-Hydroxy-S-warfarin, 7-hydroxy-S-warfarin]
CYP2C9; [6]
  AUC0-inf, adjusted geometric mean: 3330 ng·h/mL
  Cmax, adjusted geometric mean: 34.8 ng/mL
CYP2C9; treatment warfarin alone
  AUC0-inf, adjusted geometric mean: 3090 ng·h/mL
  Cmax, adjusted geometric mean: 39.1 ng/mL
CYP2C9; warfarin 10 mg single oral dose + ceritinib 750 mg QD (Day 28)
  Tmax: 47.2 [8.50; 73.7] h
CYP2C9; [7]
  AUC0–144 h: 3320 (64.1) h*ng/mL
  Cmax: 34.9 (61.6) ng/mL
CYP2C9; [8]
  Tmax: 24.2 [2.97; 49.9] h
  AUC0–144 h: 2910 (61.8) h*ng/mL
  Cmax: 39.7 (60.3) ng/mL
CYP2C9; warfarin + ceritinib 750 mg QD (Day 28)
  Metabolite-to-parent ratio: 11.7 (58.2) %
CYP2C9; warfarin + ceritinib 750 mg QD (Day 28), listed as 7-hydroxy-S-warfarin
  Metabolite-to-parent ratio: 11.7%
CYP2C9; [9]
  AUC0-inf geometric mean ratio (90% CI): 1.08
  Cmax geometric mean ratio (90% CI): 0.890
CYP2C9; warfarin + ceritinib vs warfarin alone
  decrease in the metabolite-to-parent AUC ratio: 18%
CYP2C9; warfarin alone (Day 1)
  Metabolite-to-parent ratio: 14.3 (66.6) %
CYP2C9; warfarin alone (Day 1), listed as 7-hydroxy-S-warfarin
  Metabolite-to-parent ratio: 14.3%

## Cc1ncc2n1-c1ccc(Cl)cc1C(c1ccccc1F)=NC2 [Midazolam, midazolam]
CYP3A [2]; ceritinib dosed to steady-state + single oral dose midazolam 5 mg
  predicted increase of midazolam AUC: 6 fold
CYP3A [2]; single dose ceritinib 750 mg + single oral dose midazolam 5 mg
  predicted increase of midazolam AUC: 30%
CYP3A [1]; human, plasma, oral
  Tmax: ~1 h
CYP3A [1]; human, plasma, oral, treatment midazolam + ceritinib 750 mg QD for 3 weeks, linear mixed effects model
  AUC(0-inf): 393 ng·h/mL
CYP3A [1]; human, plasma, oral, treatment midazolam + ceritinib 750 mg QD for 3 weeks, linear mixed effects model, read-out: Cmax, adjusted geometric mean
  Cmax: 42 ng/mL
CYP3A [1]; human, plasma, oral, treatment midazolam alone, linear mixed effects model
  AUC(0-inf): 72.5 ng·h/mL
CYP3A [1]; human, plasma, oral, treatment midazolam alone, linear mixed effects model, read-out: Cmax, adjusted geometric mean
  Cmax: 23 ng/mL
CYP3A [1]; human, plasma, po, 2.5 mg, midazolam 2.5 mg single oral dose alone (Day 1), geometric mean (CV%)
  half-life: 6 h
CYP3A [1]; human, plasma, po, 2.5 mg, midazolam 2.5 mg single oral dose alone (Day 1), patient plasma, geometric mean (CV%), read-out: Cmax
  Cmax: 23 ng/mL
CYP3A [1]; human, plasma, po, 2.5 mg, read-out: AUC0–144 h
  AUC(0-t): 70.2 ng·h/mL
CYP3A [1]; human, plasma, po, 2.5 mg, read-out: Tmax
  Tmax: 0.5 h
CYP3A [1]; human, plasma, po, midazolam 2.5 mg single oral dose + ceritinib 750 mg QD (Day 28), geometric mean (CV%)
  half-life: 15 h
CYP3A [1]; human, plasma, po, midazolam 2.5 mg single oral dose + ceritinib 750 mg QD at steady state (Day 28), patient plasma, geometric mean (CV%), read-out: Cmax
  Cmax: 42 ng/mL
CYP3A [1]; [10]
  CL/F: 6.36 L/h
  T1/2: 15.4 (37.4) h
CYP3A [1]; [11]
  CL/F: 34.5 L/h
  T1/2: 6.05 (47.8) h
CYP3A [1]; [5]
  decrease in apparent clearance (CL/F) of midazolam: approximately 80%
